Data: US20230017532A1 (Hoffmann-La Roche Inc., priority 2018, published 2023)
Counter-ions that a name gives are not always drawn.

tested on: Acinetobacter baumannii ATCC17961; experiment: Antimicrobial susceptibility testing: 90% growth inhibitory concentration (IC90) determination, Iso-Sensitest broth, OD 600 nm; format: cell-based; conditions: 90% growth inhibitory concentration, Acinetobacter baumannii ATCC17961, Iso-Sensitest broth, OD 600 nm over 16 h; read-out: ATCC 17961 IC90
In short: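 Growth of bacteria (~5×10^5 CFU/ml, Iso-Sensitest medium, 35±2 °C) was followed by OD at 600 nm at 20-min intervals over 16 h against a 10-point twofold compound series (e.g. 50–0.097 μM final). Concentration giving 90% inhibition in log phase was reported.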

IC90 [nM]	SMILES
1870	COc1ccc(-c2cnc3c(Nc4cc(C)c(C(=O)NCCOCCN)c(Cl)c4)nccn23)c(F)c1F [Example 62, N-(2-(2-aminoethoxy)ethyl)-2-chloro-4-((3-(2,3-difluoro-4-methoxyphenyl)imidazo[1,2-a]pyrazin-8-yl)amino)-6-methyl-benzamide]
880	COc1ccc(-c2cnc3c(Nc4ccc(C(=O)NCCOCCN)c(F)c4F)nccn23)c(F)c1F [Example 63, N-(2-(2-aminoethoxy)ethyl)-4-((3-(2,3-difluoro-4-methoxy-phenyl)imidazo [1,2-a]pyrazin-8-yl)amino)-2,3-difluoro-benzamide]
160	CCc1cc(Nc2nccn3c(-c4ccc(OC)c(F)c4F)cnc23)ccc1C(=O)NCCNCC(=O)N1CCN[C@H](CO)C1 [Example 178, 4-[[3-(2,3-difluoro-4-methoxyphenyl)imidazo[1,2-a]pyrazin-8-yl]amino]-2-ethyl-N-[2-[[2-[(3S)-3-(hydroxymethyl)piperazin-1-yl]-2-oxoethyl]amino]ethyl]benzamide]
300	CCc1cc(Nc2nccn3c(-c4cccc(F)c4C(F)(F)F)cnc23)ccc1C(=O)NCCOCCN [Example 179, N-[2-(2-aminoethoxy)ethyl]-2-ethyl-4-[[3-[3-fluoro-2-(trifluoromethyl)phenyl]imidazo [1,2-a]pyrazin-8-yl]amino] benzamide]
160	C=CCNCCCNC(=O)c1ccc(Nc2nccn3c(-c4ccc(OC)c(F)c4F)cnc23)cc1CC [Example 181, 4-[[3-(2,3-difluoro-4-methoxyphenyl)imidazo[1,2-a]pyrazin-8-yl]amino]-2-ethyl-N-[3-(prop-2-enylamino)propyl] benzamide; hydrochloride]
220	CCc1cc(Nc2nccn3c(-c4ccc(O)cc4C(F)(F)F)cnc23)ccc1C(=O)NCCOCCN [Example 182, N-[2-(2-aminoethoxy)ethyl]-2-ethyl-4-[[3-[4-hydroxy-2-(trifluoromethyl)phenyl]imidazo [1,2-a]pyrazin-8-yl]amino] benzamide; hydrochloride]
56	COc1ccc(-c2cnc3c(Nc4cc(C)c(C(=O)NCCOCCN(C)C)c(F)c4)nccn23)c(F)c1F [Example 190, 4-[[3-(2,3-difluoro-4-methoxyphenyl)imidazo[1,2-a]pyrazin-8-yl]amino]-N-[2-[2-(dimethylamino)ethoxy]ethyl]-2-fluoro-6-methylbenzamide]
380	COc1ccc(-c2cnc3c(Nc4ccc(C(=O)NCCOCCN)c(F)c4)nccn23)c(F)c1F [Example 199, N-(2-(2-amino-ethoxy)ethyl)-4-((3-(2,3-difluoro-4-methoxyphenyl)imidazo[1,2-a]pyrazin-8-yl)amino)-2-fluorobenzamide]
630	C#CCOc1ccc(-c2cnc3c(Nc4ccc(C(=O)N[C@@H](C)CNCCN)c(CC)c4)nccn23)c(F)c1F [Example 200]

SMILES	IC90 [nM]
COc1ccc(-c2cnc3c(Nc4cc(C)c(C(=O)NCCOCCN)c(F)c4)nccn23)c(F)c1F [Example 191, N-[2-(2-amino-ethoxy]-4-[[3-(2,3-difluoro-4-methoxyphenyl)imidazo[1,2-a]pyrazin-8-yl]amino]-2-fluoro-6-methyl-benzamide; hydrochloride]	87

same assay, conditions: Acinetobacter baumannii, ATCC17961, 16 h, read-out: ATCC 17961 IC90

SMILES	IC90 [nM]
CCc1cc(Nc2nccn3c(-c4ccc(OC)c(F)c4F)cnc23)ccc1C(=O)NCCOCCN(C)CC(=O)NS(C)(=O)=O [Example 66, 4-((3-(2,3-difluoro-4-methoxyphenyl)imidazo[1,2-a]pyrazin-8-yl)amino)-2-ethyl-N-(2-(2-(methyl(2-(methylsulfonamido)-2-oxoethyl)amino)ethoxy)ethyl)benzamide dihydrochloride]	370
CCc1cc(Nc2nccn3c(-c4ccc(OC)c(F)c4F)cnc23)ccc1C(=O)NCCOCC(C)(C)N [Example 72, N-[2-(2-amino-2-methyl-propoxy)ethyl]-4-[[3-(2,3-difluoro-4-methoxy-phenyl)imidazo[1,2-a]pyrazin-8-yl]amino]-2-ethyl-benzamide; formic acid]	40
